Experimental data as given in patent US10988449B2, “Isoxazole derivatives as nuclear receptor agonists and uses thereof” (IL DONG PHARMACEUTICAL CO., LTD., priority 2017, dated 2021).
Structures can show the parent of a compound that is named as a salt.

Molecular target: T1, human FXR (Homo sapiens, UniProt Q96RI1)
T1 construct: expressed in transfected cells
T1 sequence (Q96RI1 1-486): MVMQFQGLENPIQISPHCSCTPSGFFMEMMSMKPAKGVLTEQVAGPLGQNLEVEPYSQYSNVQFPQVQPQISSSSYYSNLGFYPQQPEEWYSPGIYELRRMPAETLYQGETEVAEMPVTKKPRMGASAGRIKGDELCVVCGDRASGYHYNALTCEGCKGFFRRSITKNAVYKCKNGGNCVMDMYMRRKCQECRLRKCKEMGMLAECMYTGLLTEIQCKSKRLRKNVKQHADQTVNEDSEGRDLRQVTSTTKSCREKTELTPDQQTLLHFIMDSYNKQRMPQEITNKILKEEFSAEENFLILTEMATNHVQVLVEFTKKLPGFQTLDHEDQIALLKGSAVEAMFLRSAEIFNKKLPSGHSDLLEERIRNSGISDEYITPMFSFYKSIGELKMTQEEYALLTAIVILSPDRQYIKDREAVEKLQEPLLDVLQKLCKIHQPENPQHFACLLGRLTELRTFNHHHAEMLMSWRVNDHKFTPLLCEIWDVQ
Assay: FXR reporter assay (cellular FXR activities)
Assay type: cell-based
Settings: for EC50: FXR reporter cells, 24 hours incubation, luciferase, read-out: Reporter Cell EC50; for Emax: read-out: Emax (%) (GW4064 Emax = 100%)
Method in brief: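 Reporter cells overexpressing human FXR exposed to compound dilutions for 24 h at 37 °C, 5% CO2. Luciferase signal used to calculate EC50.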

| Structure (SMILES) | EC50 [nM] | Emax [%] |
| --- | --- | --- |
| CCCCc1nc2cc(C#Cc3ccc(OCc4c(-c5c(Cl)cccc5Cl)noc4C4CC4)cc3Cl)cc(C(=O)O)c2o1 [Compound I-111, 2-butyl-5-((2-chloro-4-((5-cyclopropyl-3-(2,6-dichlorophenyl)isoxazol-4-yl)methoxy)phenyl)ethynyl)benzo[d]oxazole-7-carboxylic acid] | 20 to 60 | 98 |
| O=C(O)c1cc(C#Cc2ccc(OCc3c(-c4c(Cl)cccc4Cl)noc3C3CC3)cc2Cl)cc(N2CCCC2)c1 [Compound I-56, 3-((2-chloro-4-((5-cyclopropyl-3-(2,6-dichlorophenyl)isoxazol-4-yl)methoxy)phenyl)ethynyl)-5-(pyrrolidin-1-yl)benzoic acid] | ≤ 20 | 96 |
| COC(Cn1ccc2c(C#Cc3ccc(OCc4c(-c5c(Cl)cccc5Cl)noc4C4CC4)cc3Cl)cc(C(=O)O)cc21)OC [Compound I-96, 4-((2-chloro-4-((5-cyclopropyl-3-(2,6-dichlorophenyl)isoxazol-4-yl)methoxy)phenyl)ethynyl)-1-(2,2-dimethoxyethyl)-1H-indole-6-carboxylic acid] | ≤ 20 | 98 |
| O=C(O)c1cc(C#Cc2ccc(OCc3c(-c4c(Cl)cccc4Cl)noc3C3CC3)cc2Cl)cc2nc(C3CC3)oc12 [Compound I-110, 5-((2-chloro-4-((5-cyclopropyl-3-(2,6-dichlorophenyl)isoxazol-4-yl)methoxy)phenyl)ethynyl)-2-cyclopropylbenzo[d]oxazole-7-carboxylic acid] | ≤ 20 | 92 |
| CS(=O)(=O)Nc1cc(C#Cc2ccc(OCc3c(-c4c(Cl)cccc4Cl)noc3C3CC3)cc2Cl)cc(C(=O)O)c1 [Compound I-86, 3-((2-chloro-4-((5-cyclopropyl-3-(2,6-dichlorophenyl)isoxazol-4-yl)methoxy)phenyl)ethynyl)-5-(methylsulfonamido)benzoic acid] | 60 to 200 | 100 |
| O=C(O)c1cc(C#Cc2ccc(OCc3c(-c4c(Cl)cccc4Cl)noc3C3CC3)cc2Cl)cc2c1OCC2 [Compound I-100, 5-((2-chloro-4-((5-cyclopropyl-3-(2,6-dichlorophenyl)isoxazol-4-yl)methoxy)phenyl)ethynyl)-2,3-dihydrobenzofuran-7-carboxylic acid] | 60 to 200 | > 100 |
| COC(=O)c1cccc(C#Cc2ccc(OCc3c(-c4c(Cl)cccc4Cl)noc3C3CC3)cc2Cl)c1 [Compound I-7, methyl 3-((2-chloro-4-((5-cyclopropyl-3-(2,6-dichlorophenyl)isoxazol-4-yl)methoxy)phenyl)ethynyl)benzoate] | > 1000 | 85 |
| O=C(O)c1cccc(C#Cc2ccc(OCc3c(-c4c(Cl)cccc4Cl)noc3C3CC3)cc2Cl)c1Cl [Compound I-35, 2-chloro-3-((2-chloro-4-((5-cyclopropyl-3-(2,6-dichlorophenyl)isoxazol-4-yl)methoxy)phenyl)ethynyl)benzoic acid] | 200 to 1000 | 86 |
| Cc1c(N)cc(C(=O)O)cc1C#Cc1ccc(OCc2c(-c3c(Cl)cccc3Cl)noc2C2CC2)cc1Cl [Compound I-60, 3-amino-5-((2-chloro-4-((5-cyclopropyl-3-(2,6-dichlorophenyl)isoxazol-4-yl)methoxy)phenyl)ethynyl)-4-methylbenzoic acid] | 20 to 60 | 98 |
| CS(=O)(=O)Nc1cccc(C#Cc2ccc(OCc3c(-c4c(Cl)cccc4Cl)noc3C3CC3)cc2Cl)c1 [Compound I-13, N-(3-((2-chloro-4-((5-cyclopropyl-3-(2,6-dichlorophenyl)isoxazol-4-yl)methoxy)phenyl)ethynyl)phenyl)methanesulfonamide] | 200 to 1000 | 90 |
| O=C(O)c1cc(C#Cc2ccc(OCc3c(-c4c(Cl)cccc4Cl)noc3C3CC3)cc2Cl)ccc1F [Compound I-37, 5-((2-chloro-4-((5-cyclopropyl-3-(2,6-dichlorophenyl)isoxazol-4-yl)methoxy)phenyl)ethynyl)-2-fluorobenzoic acid] | 60 to 200 | 94 |
| CCOC(=O)Nc1cc(C#Cc2ccc(OCc3c(-c4c(Cl)cccc4Cl)noc3C3CC3)cc2Cl)cc(C(=O)O)c1 [Compound I-74, 3-((2-chloro-4-((5-cyclopropyl-3-(2,6-dichlorophenyl)isoxazol-4-yl)methoxy)phenyl)ethynyl)-5-((ethoxycarbonyl)amino)benzoic acid] | ≤ 20 | > 100 |
| O=C(O)c1ccc(C#Cc2ccc(OCc3c(-c4c(Cl)cccc4Cl)noc3C3CC3)cc2)cc1 [Compound I-1, 4-((4-((5-cyclopropyl-3-(2,6-dichlorophenyl)isoxazol-4-yl)methoxy)phenyl)ethynyl)benzoic acid] | > 1000 | > 100 |
| O=C(O)c1cccc(C#Cc2c(Cl)cc(OCc3c(-c4c(Cl)cccc4Cl)noc3C3CC3)cc2Cl)c1 [Compound I-34, 3-((2,6-dichloro-4-((5-cyclopropyl-3-(2,6-dichlorophenyl)isoxazol-4-yl)methoxy)phenyl)ethynyl)benzoic acid] | 60 to 200 | 100 |

Results, then the molecule that gave them:

| EC50 [nM] | Emax [%] | Structure (SMILES) |
| --- | --- | --- |
| > 1000 | 75 | O=C(O)c1cc(C#Cc2ccc(OCc3c(-c4c(Cl)cccc4Cl)noc3C3CC3)cc2Cl)cc(NC2CCNCC2)c1 [Compound I-58, 3-((2-chloro-4-((5-cyclopropyl-3-(2,6-dichlorophenyl)isoxazol-4-yl)methoxy)phenyl)ethynyl)-5-(piperidin-4-ylamino)benzoic acid hydrochloride] |
| 20 to 60 | > 100 | O=C(O)c1cc(C#Cc2ccc(OCc3c(-c4c(Cl)cccc4Cl)noc3C3CC3)cc2Cl)cc(CN2CCOCC2)c1 [Compound I-50, 3-((2-chloro-4-((5-cyclopropyl-3-(2,6-dichlorophenyl)isoxazol-4-yl)methoxy)phenyl)ethynyl)-5-(morpholinomethyl)benzoic acid] |
| 60 to 200 | 99 | N#Cc1cc(C#Cc2ccc(OCc3c(-c4c(Cl)cccc4Cl)noc3C3CC3)cc2Cl)cc(C(=O)O)c1 [Compound I-33, 3-((2-chloro-4-((5-cyclopropyl-3-(2,6-dichlorophenyl)isoxazol-4-yl)methoxy)phenyl)ethynyl)-5-cyanobenzoic acid] |
| 20 to 60 | 91 | O=C(O)c1cc(Cl)cc(C#Cc2ccc(OCc3c(-c4c(Cl)cccc4Cl)noc3C3CC3)cc2Cl)c1 [Compound I-27, 3-chloro-5-((2-chloro-4-((5-cyclopropyl-3-(2,6-dichlorophenyl)isoxazol-4-yl)methoxy)phenyl)ethynyl)benzoic acid] |
| 60 to 200 | 92 | CCc1cc(C#Cc2ccc(OCc3c(-c4c(Cl)cccc4Cl)noc3C3CC3)cc2Cl)cc(C(=O)O)c1 [Compound I-65, 3-((2-chloro-4-((5-cyclopropyl-3-(2,6-dichlorophenyl)isoxazol-4-yl)methoxy)phenyl)ethynyl)-5-ethylbenzoic acid] |
| 200 to 1000 | 75 | O=C(O)c1cc(C#Cc2ccc(OCc3c(-c4c(Cl)cccc4Cl)noc3C3CC3)cc2Cl)cc(CNC2COC2)c1 [Compound I-51, 3-((2-chloro-4-((5-cyclopropyl-3-(2,6-dichlorophenyl)isoxazol-4-yl)methoxy)phenyl)ethynyl)-5-((oxetan-3-ylamino)methyl)benzoic acid] |
| 200 to 1000 | > 100 | CC(=O)Nc1cc(C#Cc2ccc(OCc3c(-c4c(Cl)cccc4Cl)noc3C3CC3)cc2Cl)cc(C(=O)O)c1 [Compound I-73, 3-acetamido-5-((2-chloro-4-((5-cyclopropyl-3-(2,6-dichlorophenyl)isoxazol-4-yl)methoxy)phenyl)ethynyl)benzoic acid] |
| 20 to 60 | > 100 | O=C(O)c1cc(C#Cc2ccc(OCc3c(-c4c(Cl)cccc4Cl)noc3C3CC3)cc2Cl)cc(N2CCC2)c1 [Compound I-55, 3-(azetidin-1-yl)-5-((2-chloro-4-((5-cyclopropyl-3-(2,6-dichlorophenyl)isoxazol-4-yl)methoxy)phenyl)ethynyl)benzoic acid] |
| 60 to 200 | 99 | O=C(O)c1cc(C#Cc2ccc(OCc3c(-c4c(Cl)cccc4Cl)noc3C3CC3)cc2Cl)cc(CNCC(F)(F)F)c1 [Compound I-46, 3-((2-chloro-4-((5-cyclopropyl-3-(2,6-dichlorophenyl)isoxazol-4-yl)methoxy)phenyl)ethynyl)-5-(((2,2,2-trifluoroethyl)amino)methyl)benzoic acid] |
| 20 to 60 | > 100 | O=C(O)c1cc(C#Cc2ccc(OCc3c(-c4c(Cl)cccc4Cl)noc3C3CC3)cc2Cl)cc(C(F)(F)F)c1 [Compound I-31, 3-((2-chloro-4-((5-cyclopropyl-3-(2,6-dichlorophenyl)isoxazol-4-yl)methoxy)phenyl)ethynyl)-5-(trifluoromethyl)benzoic acid] |
| 20 to 60 | > 100 | O=C(O)c1cc(I)cc(C#Cc2ccc(OCc3c(-c4c(Cl)cccc4Cl)noc3C3CC3)cc2Cl)c1 [Compound I-67, 3-((2-chloro-4-((5-cyclopropyl-3-(2,6-dichlorophenyl)isoxazol-4-yl)methoxy)phenyl)ethynyl)-5-iodobenzoic acid] |
| 20 to 60 | > 100 | O=Cc1cc(C#Cc2ccc(OCc3c(-c4c(Cl)cccc4Cl)noc3C3CC3)cc2Cl)cc(C(=O)O)c1 [Compound I-41, 3-((2-chloro-4-((5-cyclopropyl-3-(2,6-dichlorophenyl)isoxazol-4-yl)methoxy)phenyl)ethynyl)-5-formylbenzoic acid] |
